Measured values as given in ChEMBL document CHEMBL3885881, “DrugMatrix”.

Species: Rattus norvegicus
Assay: DrugMatrix - Regimen: Daily Repeat
Assay type: toxicity, organism-based, Sprague-Dawley
Set-up: regimen Daily Repeat, gender Male, age 6-8 weeks
Settings: in vivo, ip, route intraperitoneal, vehicle 100 % SALINE; for ABSOLUTE BASOPHIL / ABSOLUTE EOSINOPHIL / ABSOLUTE LYMPHOCYTE / ABSOLUTE MONOCYTE / ABSOLUTE SEGMENTED NEUTROPHIL / BASOPHIL / EOSINOPHIL / ERYTHROCYTE COUNT / HEMATOCRIT / HEMOGLOBIN / LEUKOCYTE COUNT / LYMPHOCYTE / MEAN CORPUSCULAR HEMOGLOBIN / MEAN CORPUSCULAR HEMOGLOBIN CONCENTRATION / MEAN CORPUSCULAR VOLUME / MONOCYTE / NEUTROPHIL / PLATELET COUNT: tissue Blood; for ALANINE AMINOTRANSFERASE / ALBUMIN / ASPARTATE AMINOTRANSFERASE / BLOOD UREA NITROGEN / CHOLESTEROL / CREATINE PHOSPHOKINASE / CREATININE / GLUCOSE / LACTATE DEHYDROGENASE / LIPASE / POTASSIUM / SODIUM / TOTAL BILIRUBIN / TOTAL PROTEIN / URIC ACID / ALKALINE PHOSPHATASE / CHLORIDE / PHOSPHORUS: tissue Plasma
[1] = 0 mg/kg, 120 h, dose level Control, time 5 day
[2] = 0 mg/kg, […], dose level Control, time 14 day
[3] = 0 mg/kg, […], dose level Control, time 28 day
[4] = 10 mg/kg, 120 h, dose level High, time 5 day
[5] = 10 mg/kg, […], dose level High, time 14 day
[6] = 10 mg/kg, […], dose level High, time 28 day

## COBALTOUS CHLORIDE
[1]
  ABSOLUTE BASOPHIL: 32 cells/µL
  ABSOLUTE EOSINOPHIL: 110 cells/µL
  ABSOLUTE LYMPHOCYTE: 6630 cells/µL
  ABSOLUTE MONOCYTE: 140 cells/µL
  ABSOLUTE SEGMENTED NEUTROPHIL: 1170 cells/µL
  BASOPHIL: 0.38%
  EOSINOPHIL: 1.28%
  ERYTHROCYTE COUNT: 7.45 x10E6/uL
  HEMATOCRIT: 45.74%
  HEMOGLOBIN: 14.72 G/DL
  LEUKOCYTE COUNT: 8.11 x10E3/uL
  LYMPHOCYTE: 81.3%
  MEAN CORPUSCULAR HEMOGLOBIN: 19.76 pg
  MEAN CORPUSCULAR HEMOGLOBIN CONCENTRATION: 32.16 G/DL
  MEAN CORPUSCULAR VOLUME: 61.38 fL
  MONOCYTE: 1.76%
  NEUTROPHIL: 14.9%
  PLATELET COUNT: 1322.4 x10E3/uL
  ALANINE AMINOTRANSFERASE: 25.8 u/L
  ALBUMIN: 3.64 G/DL
  ASPARTATE AMINOTRANSFERASE: 81.4 u/L
  BLOOD UREA NITROGEN: 14.4 mg/dL
  CHOLESTEROL: 69.2 mg/dL
  CREATINE PHOSPHOKINASE: 303.2 u/L
  CREATININE: 0.56 mg/dL
  GLUCOSE: 125.4 mg/dL
  LACTATE DEHYDROGENASE: 105.4 u/L
  LIPASE: 22.4 u/L
  POTASSIUM: 5.52 MEQ/L
  SODIUM: 147 MEQ/L
  TOTAL BILIRUBIN: 0.2 mg/dL
  TOTAL PROTEIN: 6.1 G/DL
  URIC ACID: 1.06 mg/dL
[2]
  ABSOLUTE BASOPHIL: 130 cells/µL
  ABSOLUTE EOSINOPHIL: 140 cells/µL
  ABSOLUTE LYMPHOCYTE: 13500 cells/µL
  ABSOLUTE MONOCYTE: 400 cells/µL
  ABSOLUTE SEGMENTED NEUTROPHIL: 2330 cells/µL
  BASOPHIL: 0.72%
  EOSINOPHIL: 0.86%
  ERYTHROCYTE COUNT: 7.74 x10E6/uL
  HEMATOCRIT: 45.98%
  LEUKOCYTE COUNT: 16.61 x10E3/uL
  LYMPHOCYTE: 81.34%
  MEAN CORPUSCULAR HEMOGLOBIN: 18 pg
  MEAN CORPUSCULAR HEMOGLOBIN CONCENTRATION: 30.22 G/DL
  MEAN CORPUSCULAR VOLUME: 59.4 fL
  MONOCYTE: 2.46%
  NEUTROPHIL: 14.14%
  PLATELET COUNT: 1445.5 x10E3/uL
  ALANINE AMINOTRANSFERASE: 31.6 u/L
  ALBUMIN: 3.66 G/DL
  ALKALINE PHOSPHATASE: 228.6 u/L
  ASPARTATE AMINOTRANSFERASE: 79.6 u/L
  BLOOD UREA NITROGEN: 11.2 mg/dL
  CHLORIDE: 107 MEQ/L
  CHOLESTEROL: 57 mg/dL
  CREATININE: 0.5 mg/dL
  GLUCOSE: 124.4 mg/dL
  LACTATE DEHYDROGENASE: 106.4 u/L
  LIPASE: 24.4 u/L
  PHOSPHORUS: 10.52 mg/dL
  POTASSIUM: 6.34 MEQ/L
  SODIUM: 149.2 MEQ/L
  TOTAL BILIRUBIN: 0.2 mg/dL
  TOTAL PROTEIN: 6.48 G/DL
  URIC ACID: 0.94 mg/dL
[3]
  ABSOLUTE BASOPHIL: 91 cells/µL
  ABSOLUTE EOSINOPHIL: 110 cells/µL
  ABSOLUTE LYMPHOCYTE: 9910 cells/µL
  ABSOLUTE MONOCYTE: 210 cells/µL
  ABSOLUTE SEGMENTED NEUTROPHIL: 1560 cells/µL
  BASOPHIL: 0.77%
  EOSINOPHIL: 0.92%
  ERYTHROCYTE COUNT: 8.21 x10E6/uL
  HEMATOCRIT: 47.53%
  HEMOGLOBIN: 15.65 G/DL
  LEUKOCYTE COUNT: 11.91 x10E3/uL
  LYMPHOCYTE: 83.34%
  MEAN CORPUSCULAR HEMOGLOBIN: 19.07 pg
  MEAN CORPUSCULAR HEMOGLOBIN CONCENTRATION: 32.93 G/DL
  MEAN CORPUSCULAR VOLUME: 57.9 fL
  MONOCYTE: 1.68%
  NEUTROPHIL: 12.97%
  PLATELET COUNT: 1323.8 x10E3/uL
  ALANINE AMINOTRANSFERASE: 30 u/L
  ALBUMIN: 3.71 G/DL
  ALKALINE PHOSPHATASE: 186.8 u/L
  ASPARTATE AMINOTRANSFERASE: 78.2 u/L
  BLOOD UREA NITROGEN: 14.2 mg/dL
  CHOLESTEROL: 44.9 mg/dL
  CREATINE PHOSPHOKINASE: 334.3 u/L
  CREATININE: 0.6 mg/dL
  GLUCOSE: 147.2 mg/dL
  LACTATE DEHYDROGENASE: 123.1 u/L
  LIPASE: 9.6 u/L
  PHOSPHORUS: 10.01 mg/dL
  POTASSIUM: 6.57 MEQ/L
  SODIUM: 149.5 MEQ/L
  TOTAL BILIRUBIN: 0.21 mg/dL
  TOTAL PROTEIN: 6.66 G/DL
  URIC ACID: 1.26 mg/dL
[4]
  ABSOLUTE BASOPHIL: 46 cells/µL
  ABSOLUTE EOSINOPHIL: 74 cells/µL
  ABSOLUTE LYMPHOCYTE: 8680 cells/µL
  ABSOLUTE MONOCYTE: 210 cells/µL
  ABSOLUTE SEGMENTED NEUTROPHIL: 1660 cells/µL
  BASOPHIL: 0.44%
  EOSINOPHIL: 0.68%
  ERYTHROCYTE COUNT: 7.83 x10E6/uL
  HEMATOCRIT: 48.96%
  HEMOGLOBIN: 15.82 G/DL
  LEUKOCYTE COUNT: 10.72 x10E3/uL
  LYMPHOCYTE: 81.38%
  MEAN CORPUSCULAR HEMOGLOBIN: 20.22 pg
  MEAN CORPUSCULAR HEMOGLOBIN CONCENTRATION: 32.34 G/DL
  MEAN CORPUSCULAR VOLUME: 62.58 fL
  MONOCYTE: 1.94%
  NEUTROPHIL: 15.1%
  PLATELET COUNT: 1648.2 x10E3/uL
  ALANINE AMINOTRANSFERASE: 27.2 u/L
  ALBUMIN: 3.7 G/DL
  ALKALINE PHOSPHATASE: 212.6 u/L
  ASPARTATE AMINOTRANSFERASE: 86.6 u/L
  BLOOD UREA NITROGEN: 17.2 mg/dL
  CHLORIDE: 110.4 MEQ/L
  CHOLESTEROL: 49.8 mg/dL
  CREATINE PHOSPHOKINASE: 277.6 u/L
  CREATININE: 0.56 mg/dL
  GLUCOSE: 125.8 mg/dL
  LACTATE DEHYDROGENASE: 60.2 u/L
  LIPASE: 31.2 u/L
  PHOSPHORUS: 11.88 mg/dL
  SODIUM: 148.6 MEQ/L
  TOTAL BILIRUBIN: 0.26 mg/dL
  TOTAL PROTEIN: 6.26 G/DL
  URIC ACID: 1.38 mg/dL
[5]
  ABSOLUTE BASOPHIL: 72 cells/µL
  ABSOLUTE EOSINOPHIL: 76 cells/µL
  ABSOLUTE LYMPHOCYTE: 8200 cells/µL
  ABSOLUTE MONOCYTE: 260 cells/µL
  ABSOLUTE SEGMENTED NEUTROPHIL: 1320 cells/µL
  BASOPHIL: 0.66%
  EOSINOPHIL: 0.8%
  ERYTHROCYTE COUNT: 8.58 x10E6/uL
  HEMATOCRIT: 54.6%
  HEMOGLOBIN: 17.66 G/DL
  LEUKOCYTE COUNT: 9.97 x10E3/uL
  LYMPHOCYTE: 81.92%
  MEAN CORPUSCULAR HEMOGLOBIN: 20.62 pg
  MEAN CORPUSCULAR HEMOGLOBIN CONCENTRATION: 32.34 G/DL
  MONOCYTE: 2.54%
  NEUTROPHIL: 13.72%
  PLATELET COUNT: 1213.6 x10E3/uL
  ALANINE AMINOTRANSFERASE: 29 u/L
  ALBUMIN: 3.74 G/DL
  ALKALINE PHOSPHATASE: 189.6 u/L
  ASPARTATE AMINOTRANSFERASE: 91.8 u/L
  BLOOD UREA NITROGEN: 14.6 mg/dL
  CHLORIDE: 112 MEQ/L
  CHOLESTEROL: 48.8 mg/dL
  CREATINE PHOSPHOKINASE: 182.6 u/L
  CREATININE: 0.52 mg/dL
  GLUCOSE: 124.8 mg/dL
  LACTATE DEHYDROGENASE: 103.2 u/L
  LIPASE: 22 u/L
  POTASSIUM: 6.24 MEQ/L
  SODIUM: 149.8 MEQ/L
  TOTAL BILIRUBIN: 0.26 mg/dL
  TOTAL PROTEIN: 6.68 G/DL
  URIC ACID: 1.26 mg/dL
[6]
  ABSOLUTE BASOPHIL: 170 cells/µL
  ABSOLUTE EOSINOPHIL: 160 cells/µL
  ABSOLUTE LYMPHOCYTE: 8960 cells/µL
  ABSOLUTE MONOCYTE: 240 cells/µL
  ABSOLUTE SEGMENTED NEUTROPHIL: 2230 cells/µL
  BASOPHIL: 1.38%
  EOSINOPHIL: 1.23%
  ERYTHROCYTE COUNT: 9.9 x10E6/uL
  HEMATOCRIT: 61.68%
  HEMOGLOBIN: 19.49 G/DL
  LEUKOCYTE COUNT: 11.78 x10E3/uL
  LYMPHOCYTE: 76.07%
  MEAN CORPUSCULAR HEMOGLOBIN: 19.7 pg
  MEAN CORPUSCULAR HEMOGLOBIN CONCENTRATION: 31.56 G/DL
  MONOCYTE: 2.09%
  NEUTROPHIL: 19.02%
  PLATELET COUNT: 1119.7 x10E3/uL
  ALANINE AMINOTRANSFERASE: 38.1 u/L
  ALBUMIN: 3.64 G/DL
  ALKALINE PHOSPHATASE: 126.6 u/L
  ASPARTATE AMINOTRANSFERASE: 117.5 u/L
  BLOOD UREA NITROGEN: 15.5 mg/dL
  CHLORIDE: 110.7 MEQ/L
  CHOLESTEROL: 27.7 mg/dL
  CREATINE PHOSPHOKINASE: 386.4 u/L
  CREATININE: 0.7 mg/dL
  GLUCOSE: 88.3 mg/dL
  LACTATE DEHYDROGENASE: 116.6 u/L
  LIPASE: 2.8 u/L
  PHOSPHORUS: 10.92 mg/dL
  POTASSIUM: 6.81 MEQ/L
  SODIUM: 152.5 MEQ/L
  TOTAL BILIRUBIN: 0.33 mg/dL
  TOTAL PROTEIN: 6.59 G/DL
  URIC ACID: 1.31 mg/dL
